Structure (SMILES)	logP
CCC1(CC)C(=O)NC(=S)NC1=O	1.5
CC(C)(C)C1C(=O)NC(=O)NC1=O	0.28
CCCC1(CCC)C(=O)NC(=O)NC1=O	1.75
C=CCC1(C(C)(C)C)C(=O)NC(=O)NC1=O	1.64
CC(C)C1(C)C(=O)NC(=O)NC1=O	0.54
CCC(C)C1(CC)C(=O)NC(=O)NC1=O (stereo not drawn)	1.65
CCCCC1(CCCC)C(=O)NC(=O)NC1=O	2.7
CCCC1(CCC)C(=O)NC(=S)NC1=O	2.66
CCC1(C(C)(C)C)C(=O)NC(=O)NC1=O	1.38
CC(C)C1(C(C)C)C(=O)NC(=O)NC1=O	1.56
CC(C)(C)C1(Cl)C(=O)NC(=O)NC1=O	0.82
CC(C)(C)C1(C)C(=O)NC(=O)NC1=O	0.8
CC(C)C1C(=O)NC(=O)NC1=O	-0.02
